Measured values taken from patent US20230085307A1, “PYRIDAZINONE COMPOUND AND HERBICIDE” (NISSAN CHEMICAL CORPORATION, priority 2019, published 2023).

How the values were obtained:
velvetleaf [1] = test: Test Example 4: herbicidal effect by soil treatment (Table 19, symbol M); type: in vivo, velvetleaf (Abutilon theophrasti); details: amount of applied herbicide 320 g/ha
Procedure, shortened: (§1)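 Emulsion of test compound, water-diluted to predetermined amount, sprayed on soil after sowing (seed depth ~1.5 cm, sterilized diluvial soil). Greenhouse, 25–30° C. Effect graded at three weeks post-spray.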

windgrass [2] = test: Test Example 4: herbicidal effect by soil treatment (Table 19, symbol L); type: in vivo, windgrass (Apera spica-venti); details: amount of applied herbicide 320 g/ha
Procedure, shortened: as §1

green foxtail [3] = test: Test Example 5: herbicidal effect by foliage application, plastic box (Table 20, symbol G); type: in vivo, green foxtail (Setaria viridis); details: evaluated three weeks after application
Procedure, shortened: (§2)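 Post-emergence foliar test in sterilized diluvial soil. Compound applied as water-diluted emulsion at a predetermined rate to 14-day-old plants; evaluation at three weeks.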

windgrass [4] = test: Test Example 5: herbicidal effect by foliage application, plastic box (Table 20, symbol L); type: in vivo, windgrass (Apera spica-venti); details: evaluated three weeks after application
Procedure, shortened: as §2

lambsquarters [5] = test: Test Example 4: herbicidal effect by soil treatment (Table 19, symbol O); type: in vivo, lambsquarters (Chenopodium album); details: amount of applied herbicide 320 g/ha
Procedure, shortened: as §1

Japanese bulrush = test: Test Example 1: herbicidal activity, application before weed generation under submerged conditions (Table 16, symbol B); type: in vivo, Japanese bulrush (Schoenoplectus juncoides); details: 320 g/ha applied herbicide
Procedure, shortened: (§3)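 Emulsion formulation, water-diluted to set dose, was put onto the flooded surface (4 cm depth, alluvial soil) the same day weeds were sown and 2.5-leaf rice transplanted. After 3 weeks at 25-30 °C under glass, each species was rated 0 (≤5% kill) to 5 (≥90% kill).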

southern crabgrass [6] = test: Test Example 5: herbicidal effect by foliage application, plastic box (Table 20, symbol F); type: in vivo, southern crabgrass (Digitaria ciliaris); details: evaluated three weeks after application
Procedure, shortened: as §2

green foxtail [7] = test: Test Example 4: herbicidal effect by soil treatment (Table 19, symbol G); type: in vivo, green foxtail (Setaria viridis); details: amount of applied herbicide 320 g/ha
Procedure, shortened: as §1

false cleavers = test: Test Example 4: herbicidal effect by soil treatment (Table 19, symbol Q); type: in vivo, false cleavers (Galium spurium); details: amount of applied herbicide 320 g/ha
Procedure, shortened: as §1

chickweed [8] = test: Test Example 5: herbicidal effect by foliage application, plastic box (Table 20, symbol P); type: in vivo, common chickweed (Stellaria media); details: evaluated three weeks after application
Procedure, shortened: as §2

southern crabgrass [9] = test: Test Example 4: herbicidal effect by soil treatment (Table 19, symbol F); type: in vivo, southern crabgrass (Digitaria ciliaris); details: amount of applied herbicide 320 g/ha
Procedure, shortened: as §1

late watergrass = test: Test Example 1: herbicidal activity, application before weed generation under submerged conditions (Table 16, symbol A); type: in vivo, late watergrass (Echinochloa oryzicola); details: 320 g/ha applied herbicide
Procedure, shortened: as §3

oval-leafed pondweed = test: Test Example 1: herbicidal activity, application before weed generation under submerged conditions (Table 16, symbol C); type: in vivo, oval-leafed pondweed (Monochoria vaginalis); details: 320 g/ha applied herbicide
Procedure, shortened: as §3

barnyard grass [10] = test: Test Example 3: herbicidal effect by foliage application, Wagner pot (Table 18, symbol H); type: in vivo, barnyard grass (Echinochloa crus-galli)
Procedure, shortened: (§4)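 Plants were sown in alluvial soil held under 0.1–0.5 cm standing water and grown 14 days in a greenhouse at 25–30 °C. An emulsifiable formulation, water-diluted to the set dose, was then sprayed onto the foliage, and effects were scored three weeks later using previously defined criteria.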

wild oat [11] = test: Test Example 5: herbicidal effect by foliage application, plastic box (Table 20, symbol I); type: in vivo, wild oat (Avena fatua); details: evaluated three weeks after application
Procedure, shortened: as §2

lambsquarters [12] = test: Test Example 5: herbicidal effect by foliage application, plastic box (Table 20, symbol O); type: in vivo, lambsquarters (Chenopodium album); details: evaluated three weeks after application
Procedure, shortened: as §2

Italian ryegrass [13] = test: Test Example 4: herbicidal effect by soil treatment (Table 19, symbol K); type: in vivo, Italian ryegrass (Lolium multiflorum); details: amount of applied herbicide 320 g/ha
Procedure, shortened: as §1

persian speedwell [14] = test: Test Example 5: herbicidal effect by foliage application, plastic box (Table 20, symbol R); type: in vivo, Persian speedwell (Veronica persica); details: evaluated three weeks after application
Procedure, shortened: as §2

rice flat sedge = test: Test Example 3: herbicidal effect by foliage application, Wagner pot (Table 18, symbol E); type: in vivo, rice flat sedge (Cyperus iria)
Procedure, shortened: as §4

redroot pigweed [15] = test: Test Example 4: herbicidal effect by soil treatment (Table 19, symbol N); type: in vivo, redroot pigweed (Amaranthus retroflexus); details: amount of applied herbicide 320 g/ha
Procedure, shortened: as §1

Italian ryegrass [16] = test: Test Example 5: herbicidal effect by foliage application, plastic box (Table 20, symbol K); type: in vivo, Italian ryegrass (Lolium multiflorum); details: evaluated three weeks after application
Procedure, shortened: as §2

wild oat [17] = test: Test Example 4: herbicidal effect by soil treatment (Table 19, symbol I); type: in vivo, wild oat (Avena fatua); details: amount of applied herbicide 320 g/ha
Procedure, shortened: as §1

barnyard grass [18] = test: Test Example 4: herbicidal effect by soil treatment (Table 19, symbol H); type: in vivo, barnyard grass (Echinochloa crus-galli); details: amount of applied herbicide 320 g/ha
Procedure, shortened: as §1

blackgrass [19] = test: Test Example 5: herbicidal effect by foliage application, plastic box (Table 20, symbol J); type: in vivo, blackgrass (Alopecurus myosuroides); details: evaluated three weeks after application
Procedure, shortened: as §2

velvetleaf [20] = test: Test Example 5: herbicidal effect by foliage application, plastic box (Table 20, symbol M); type: in vivo, velvetleaf (Abutilon theophrasti); details: evaluated three weeks after application
Procedure, shortened: as §2

redroot pigweed [21] = test: Test Example 5: herbicidal effect by foliage application, plastic box (Table 20, symbol N); type: in vivo, redroot pigweed (Amaranthus retroflexus); details: evaluated three weeks after application
Procedure, shortened: as §2

Chinese sprangletop = test: Test Example 3: herbicidal effect by foliage application, Wagner pot (Table 18, symbol D); type: in vivo, chinese sprangletop (Leptochloa chinensis)
Procedure, shortened: as §4

barnyard grass [22] = test: Test Example 5: herbicidal effect by foliage application, plastic box (Table 20, symbol H); type: in vivo, barnyard grass (Echinochloa crus-galli); details: evaluated three weeks after application
Procedure, shortened: as §2

persian speedwell [23] = test: Test Example 4: herbicidal effect by soil treatment (Table 19, symbol R); type: in vivo, Persian speedwell (Veronica persica); details: amount of applied herbicide 320 g/ha
Procedure, shortened: as §1

chickweed [24] = test: Test Example 4: herbicidal effect by soil treatment (Table 19, symbol P); type: in vivo, common chickweed (Stellaria media); details: amount of applied herbicide 320 g/ha
Procedure, shortened: as §1

blackgrass [25] = test: Test Example 4: herbicidal effect by soil treatment (Table 19, symbol J); type: in vivo, blackgrass (Alopecurus myosuroides); details: amount of applied herbicide 320 g/ha
Procedure, shortened: as §1

[26] = foliage application, AAH 320 g/ha
[27] = amount of applied herbicide 320 g/ha
[28] = 320 g/ha, foliage application after 14-day growth

Cc1nn(C)c(=O)c(-c2c(-c3ccc(COCC(F)(F)F)cc3)sc3ccc(F)cc23)c1O [2-315]
herbicidal effect on M: velvetleaf (velvetleaf [1]): 4 (Herbicidal rate of 70% or more and less than 90%)
herbicidal effect on L: windgrass (windgrass [2]): 0 (Herbicidal rate of 5% or less (almost no effect))
G: green foxtail, herbicidal effect (criteria 0-5) (green foxtail [3]; [26]): 5 (Herbicidal rate of 90% or more (almost completely withered))
L: windgrass, herbicidal effect (criteria 0-5) (windgrass [4]; [26]): 5 (Herbicidal rate of 90% or more (almost completely withered))
herbicidal effect on O: lambsquarters (lambsquarters [5]): 5 (Herbicidal rate of 90% or more (almost completely withered))
Herbicidal effect on B: Japanese bulrush (grade 0-5) (Japanese bulrush): 0 (Herbicidal rate of 5% or less (almost no effect))
F: southern crabgrass, herbicidal effect (criteria 0-5) (southern crabgrass [6]; [26]): 4 (Herbicidal rate of 70% or more and less than 90%)
herbicidal effect on G: green foxtail (green foxtail [7]): 3 (Herbicidal rate of 40% or more and less than 70%)
herbicidal effect on Q: false cleavers (false cleavers): 5 (Herbicidal rate of 90% or more (almost completely withered))
P: chickweed, herbicidal effect (criteria 0-5) (chickweed [8]; [26]): 5 (Herbicidal rate of 90% or more (almost completely withered))
herbicidal effect on F: southern crabgrass (southern crabgrass [9]): 2 (Herbicidal rate of 20% or more and less than 40%)
Herbicidal effect on A: late watergrass (grade 0-5) (late watergrass): 4 (Herbicidal rate of 70% or more and less than 90%)
Herbicidal effect on C: oval-leafed pondweed (grade 0-5) (oval-leafed pondweed): 0 (Herbicidal rate of 5% or less (almost no effect))
herbicidal effect on H: barnyard grass (barnyard grass [10]; [27]): 5 (Herbicidal rate of 90% or more (almost completely withered))
I: wild oat, herbicidal effect (criteria 0-5) (wild oat [11]; [26]): 0 (Herbicidal rate of 5% or less (almost no effect))
O: lambsquarters, herbicidal effect (criteria 0-5) (lambsquarters [12]; [26]): 5 (Herbicidal rate of 90% or more (almost completely withered))
herbicidal effect on K: Italian ryegrass (Italian ryegrass [13]): 4 (Herbicidal rate of 70% or more and less than 90%)
R: persian speedwell, herbicidal effect (criteria 0-5) (persian speedwell [14]; [26]): 5 (Herbicidal rate of 90% or more (almost completely withered))
herbicidal effect on E: rice flat sedge (rice flat sedge; [27]): 5 (Herbicidal rate of 90% or more (almost completely withered))
herbicidal effect on N: redroot pigweed (redroot pigweed [15]): 5 (Herbicidal rate of 90% or more (almost completely withered))
K: Italian ryegrass, herbicidal effect (criteria 0-5) (Italian ryegrass [16]; [26]): 5 (Herbicidal rate of 90% or more (almost completely withered))
herbicidal effect on I: wild oat (wild oat [17]): 0 (Herbicidal rate of 5% or less (almost no effect))
herbicidal effect on H: barnyard grass (barnyard grass [18]): 3 (Herbicidal rate of 40% or more and less than 70%)
J: blackgrass, herbicidal effect (criteria 0-5) (blackgrass [19]; [26]): 5 (Herbicidal rate of 90% or more (almost completely withered))
M: velvetleaf, herbicidal effect (criteria 0-5) (velvetleaf [20]; [26]): 5 (Herbicidal rate of 90% or more (almost completely withered))
N: redroot pigweed, herbicidal effect (criteria 0-5) (redroot pigweed [21]; [26]): 5 (Herbicidal rate of 90% or more (almost completely withered))
herbicidal effect on D: Chinese sprangletop (Chinese sprangletop; [27]): 3 (Herbicidal rate of 40% or more and less than 70%)
H: barnyard grass, herbicidal effect (criteria 0-5) (barnyard grass [22]; [26]): 5 (Herbicidal rate of 90% or more (almost completely withered))

Cc1nn(C)c(=O)c(-c2c(-c3ccc(C#N)cc3)sc3c(F)cccc23)c1O [4-052]
Herbicidal effect by soil treatment, M: velvetleaf (velvetleaf [1]): 1 (Herbicidal rate of 5% or more and less than 20%)
Herbicidal effect by soil treatment, L: windgrass (windgrass [2]): 0 (Herbicidal rate of 5% or less (almost no effect))
herbicidal effect on G: green foxtail (evaluation grade 0-5) (green foxtail [3]; [28]): 5 (Herbicidal rate of 90% or more (almost completely withered))
herbicidal effect on L: windgrass (evaluation grade 0-5) (windgrass [4]; [28]): 0 (Herbicidal rate of 5% or less (almost no effect))
Herbicidal effect by soil treatment, O: lambsquarters (lambsquarters [5]): 2 (Herbicidal rate of 20% or more and less than 40%)
herbicidal effect on F: southern crabgrass (evaluation grade 0-5) (southern crabgrass [6]; [28]): 0 (Herbicidal rate of 5% or less (almost no effect))
Herbicidal effect by soil treatment, G: green foxtail (green foxtail [7]): 0 (Herbicidal rate of 5% or less (almost no effect))
Herbicidal effect by soil treatment, Q: false cleavers (false cleavers): 0 (Herbicidal rate of 5% or less (almost no effect))
herbicidal effect on P: chickweed (evaluation grade 0-5) (chickweed [8]; [28]): 5 (Herbicidal rate of 90% or more (almost completely withered))
Herbicidal effect by soil treatment, R: persian speedwell (persian speedwell [23]): 4 (Herbicidal rate of 70% or more and less than 90%)
Herbicidal effect by soil treatment, F: southern crabgrass (southern crabgrass [9]): 0 (Herbicidal rate of 5% or less (almost no effect))
Herbicidal effect by soil treatment, P: chickweed (chickweed [24]): 3 (Herbicidal rate of 40% or more and less than 70%)
herbicidal effect on barnyard grass (H) (barnyard grass [10]; 320 g/ha): 5 (Herbicidal rate of 90% or more (almost completely withered))
herbicidal effect on I: wild oat (evaluation grade 0-5) (wild oat [11]; [28]): 0 (Herbicidal rate of 5% or less (almost no effect))
herbicidal effect on O: lambsquarters (evaluation grade 0-5) (lambsquarters [12]; [28]): 4 (Herbicidal rate of 70% or more and less than 90%)
Herbicidal effect by soil treatment, K: Italian ryegrass (Italian ryegrass [13]): 0 (Herbicidal rate of 5% or less (almost no effect))
herbicidal effect on R: persian speedwell (evaluation grade 0-5) (persian speedwell [14]; [28]): 5 (Herbicidal rate of 90% or more (almost completely withered))
herbicidal effect on rice flat sedge (E) (rice flat sedge; 320 g/ha): 4 (Herbicidal rate of 70% or more and less than 90%)
Herbicidal effect by soil treatment, J: blackgrass (blackgrass [25]): 0 (Herbicidal rate of 5% or less (almost no effect))
Herbicidal effect by soil treatment, N: redroot pigweed (redroot pigweed [15]): 4 (Herbicidal rate of 70% or more and less than 90%)
herbicidal effect on K: Italian ryegrass (evaluation grade 0-5) (Italian ryegrass [16]; [28]): 3 (Herbicidal rate of 40% or more and less than 70%)
Herbicidal effect by soil treatment, I: wild oat (wild oat [17]): 0 (Herbicidal rate of 5% or less (almost no effect))
Herbicidal effect by soil treatment, H: barnyard grass (barnyard grass [18]): 0 (Herbicidal rate of 5% or less (almost no effect))
herbicidal effect on J: blackgrass (evaluation grade 0-5) (blackgrass [19]; [28]): 0 (Herbicidal rate of 5% or less (almost no effect))
herbicidal effect on M: velvetleaf (evaluation grade 0-5) (velvetleaf [20]; [28]): 5 (Herbicidal rate of 90% or more (almost completely withered))
herbicidal effect on N: redroot pigweed (evaluation grade 0-5) (redroot pigweed [21]; [28]): 5 (Herbicidal rate of 90% or more (almost completely withered))
herbicidal effect on Chinese sprangletop (D) (Chinese sprangletop; 320 g/ha): 3 (Herbicidal rate of 40% or more and less than 70%)
herbicidal effect on H: barnyard grass (evaluation grade 0-5) (barnyard grass [22]; [28]): 5 (Herbicidal rate of 90% or more (almost completely withered))
